In ChEMBL document CHEMBL1687859, “Therapeutic efficacy of halocidin-derived peptide HG1 in a mouse model of surgical wound infection with methicillin-resistant Staphylococcus aureus” (Antimicrob Agents Chemother, 2011):
Converted amounts (≈) assume the structure as drawn. The source made the active and inactive calls. The rule behind the calls is not given here. Bridge positions count the residues as written; N and C are the ends. Peptide text beside a SMILES is read from it. I, II: the chains in the order shown.

Columns and labels:
[1] = system: Zone of skin; assay: Drug penetration in ICR mouse skin administered topically using plastic cylinder by HPLC analysis; format: ADME, tissue-based; settings: in vivo, topical_or_ocular
[2] = system: Zone of skin; assay: Drug penetration in ICR mouse skin administered topically using plastic cylinder by immunoblotting; format: ADME, tissue-based; settings: in vivo, topical_or_ocular
[3] = system: Zone of skin; assay: Drug penetration in ICR mouse skin administered topically using plastic cylinder by fluorescence microscopy; format: ADME, tissue-based; settings: in vivo, topical_or_ocular
[4] = system: Staphylococcus aureus; assay: Antibacterial activity against methicillin-resistant Staphylococcus aureus; format: functional
[5] = system: Staphylococcus aureus; assay: Antibacterial activity against methicillin-resistant Staphylococcus aureus infected in ICR mouse surgical wound model assessed as reduction of CFU administered topically every 12 hrs for 5 days; format: functional
[6] = system: Zone of skin; assay: Drug penetration in ethidium bromide-labeled methicillin-resistant Staphylococcus aureus infected ICR mouse skin administered topically after 4 hrs by confocal microscopic analysis; format: ADME, tissue-based; settings: in vivo, topical_or_ocular
[7] = system: Staphylococcus aureus; assay: Drug binding to ethidium bromide-labeled methicillin-resistant Staphylococcus aureus infected in ICR mouse skin administered topically after 4 hrs by confocal microscopic analysis; format: ADME, organism-based; settings: in vivo, topical_or_ocular
[8] = system: Staphylococcus aureus; assay: Antibacterial activity against ethidium bromide-labeled methicillin-resistant Staphylococcus aureus infected in ICR mouse skin administered topically after 4 hrs by confocal microscopic analysis; format: functional, organism-based

For `CC(C)C[C@H](NC(=O)CNC(=O)[C@H](Cc1cnc[nH]1)NC(=O)[C@H](Cc1cnc[nH]1)NC(=O)[C@H](CC(C)C)NC(=O)[C@H](CC(C)C)NC(=O)[C@H](C)NC(=O)[C@H](CC(N)=O)NC(=O)[C@H](CC(C)C)NC(=O)[C@H](Cc1c[nH]c2ccccc12)NC(=O)[C@@H](N)CCCCN)C(=O)N[C@@H](CC(N)=O)C(=O)N[C@@H](CSSC[C@H](NC(=O)[C@H](CC(N)=O)NC(=O)[C@H](CC(C)C)NC(=O)CNC(=O)[C@H](Cc1cnc[nH]1)NC(=O)[C@H](Cc1cnc[nH]1)NC(=O)[C@H](CC(C)C)NC(=O)[C@H](CC(C)C)NC(=O)[C@H](C)NC(=O)[C@H](CC(N)=O)NC(=O)[C@H](CC(C)C)NC(=O)[C@H](Cc1c[nH]c2ccccc12)NC(=O)[C@@H](N)CCCCN)C(=O)N[C@@H](C)C(=O)N[C@@H](CCCCN)C(=O)NCC(=O)N[C@H](C(=O)N[C@@H](CC(C)C)C(=O)N[C@@H](C)C(N)=O)C(C)C)C(=O)N[C@@H](C)C(=O)N[C@@H](CCCCN)C(=O)NCC(=O)N[C@H](C(=O)N[C@@H](CC(C)C)C(=O)N[C@@H](C)C(N)=O)C(C)C` (I: H-KWLNALLHHGLNCAKGVLA-NH2 / II: H-KWLNALLHHGLNCAKGVLA-NH2; disulfide I:13-II:13), the Drug uptake [1] was “Active”, the Drug uptake [2] was “Active” and the Drug uptake [3] was “Active”. The MIC [4] was 4 µg/mL (≈ 0.973 µM), the CFU [5] was 3 and the Drug uptake [6] was “Active”. The Activity [7] was “Active” and the Activity [8] was “Active”.
